# Where “and” joins values, the source holds several entries; their conditions need not be identical. Identical values can stand only once.
# What was measured:
# human amylin (hIAPP) [1] = target: T1, human amylin (hIAPP) (Homo sapiens, UniProt P10997); experiment: Thioflavin T (ThT) fluorescence assay of amylin aggregation; format: biochemical; settings: read-out: IC50 of amylin aggregation inhibition
# T1 construct: purchased Bachem USA
# T1 sequence (P10997 34-70 limits assumed): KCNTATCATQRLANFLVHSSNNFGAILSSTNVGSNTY
# human amylin (hIAPP) [2] = target: T1, human amylin (hIAPP); experiment: Kinetic analysis of amylin aggregation (ThT, two-step autocatalytic aggregation model); format: biochemical; settings: mean ± S.D.; for t 0 (time point when the aggregation starts): 10% of highest ThT fluorescence; for t 1/2 (aggregation halftime): 50% of highest ThT fluorescence; for t 1 (aggregation endpoint): 90% of highest ThT fluorescence; for k / k e (elongation constant) / k n (nucleation constant) / ρ (ratio of kn to k): ThT data, autocatalytic aggregation model
# Protocol: Kinetic analysis was performed according to the model of autocatalytic aggregation. According to Sabaté et al., aggregation is a two-step process, comprising nucleation (described by the k n constant) and fibrillation phases (represented by the k e constant). Two constants (k n and k e) are calculated using the eq : 5 f=ρ{e^[(1+ρ)kt]−1}/{1+ρe^[(1+ρ)kt]} where k = k e a (where a represents the initial concentration of the aggregating peptide), f stands for a fraction of the fibrillar form in the system, and ρ denotes the dimensionless ratio of k n to k. The parameters k and ρ were calculated first, then k n and k e.
# Data were normalized as a fraction of the highest fluorescence from the three trials and fitted into the model of autocatalytic aggregation. The same procedure was repeated for the remaining trials. The second calculation aimed to find the time parameters of the aggregation process: t 0 (time point when the aggregation starts), t 1/2 (aggregation halftime), and t 1 (aggregation endpoint). t 0, t 1/2, and t 1 were calculated as 10%, 50%, and 90% of the highest fluorescence measurements from the three trials, respectively. All calculations were performed using GraphPad Prism 9.5.1, Statistica 13.3.721.1, and Microsoft Excel 2304.
# human amylin (hIAPP) [3] = target: T1, human amylin (hIAPP); experiment: Thioflavin T (ThT) fluorescence assay of amylin aggregation; format: biochemical; settings: for inhibition at 10 µM: read-out: ThT inhibition % (mean ± SEM), compound 10 μM, amylin 15 μM, 36 h incubation, 3 trials
# Protocol: (§1) A stock solution of amylin (1 mM) (purchased from Bachem USA), peptide sequence: […] amide (with disulfide bond between Cys2 and Cys7), was prepared in 100% hexafluoroisopropyl alcohol (HFIP) (purchased from Sigma-Aldrich) and stored at −20 °C. , Aliquots of amylin peptide were filtered through a 0.22 μm filter from the stock solution and freeze-dried. For kinetic experiments, 15 μM of amylin was prepared in 50 mM Tris-HCl buffer (pH 7.4), as investigated in previous studies by Chaari et al., , Samples of amylin were prepared in the presence or absence of inhibitors. Each compound was dissolved in DMSO and further diluted with the buffer used to solubilize the amylin. The final mixture contained 15 μM amylin, 10 μM of the test compound, 2% DMSO or 15 μM amylin, and 2% DMSO without the compound (negative control). Also 15 μM amylin, 10 μM of oleuropein aglycone and 2% DMSO was used as a positive control. The prepared solutions were incubated under physiological conditions (pH 7.4 and 37 °C) for amylin aggregation. Samples were incubated for 36 h to test for amylin aggregation, and measurements were conducted at different time points.
# Amylin aggregation was monitored by characteristic changes in Thioflavin T (ThT) fluorescence intensity. A ThT stock solution (15 μM) was prepared in deionized water at pH 7.4. The amylin samples were mixed with the ThT solution and allowed to incubate. ThT fluorescence was measured using the PerkinElmer model LS 55 fluorescence spectrophotometer (PerkinElmer, USA), with an excitation wavelength of 440 nm and an emission wavelength of 480 nm. ,− The emission and excitation slits were set to 5 nm, and a 1 cm cuvette was used for all experiments. Nonspecific background fluorescence was subtracted from the samples using appropriate blanks in the absence of proteins. Each experiment was performed in triplicate.
# human amylin (hIAPP) [4] = target: T1, human amylin (hIAPP); experiment: Dynamic light scattering (DLS) assay of amylin aggregation; format: biochemical; settings: compound 10 μM, amylin 15 μM, 36 h incubation, 3 trials; read-out: DLS inhibition % (mean ± SEM)
# Protocol: as §1
# DLS (Zetasizer, Malvern) was used at a wavelength of 633 nm to measure the average diffusion coefficient distribution of amylin particles and the aggregation percentage. Samples were diluted 10-fold, and 50 μL was placed into a 96-well plate. The total light scattering intensity at a 90° angle was collected using a 10 s averaging acquisition time. Particle translational diffusion coefficients were calculated from autocorrelated light intensity data (usually 30–40 points) and converted to the hydrodynamic radius (R h) using the Stokes–Einstein equation. A distribution plot of intensity versus R h was calculated using the Sedfit 9.3 analysis software, and intensity-weighted mean R h values were obtained from each peak.
# Aβ = system: Aβ; parameters: method as in Panek et al.; settings: ref Panek et al.; cited from earlier work
compound,measurement,setting,value
"C/C=C1/C(O)OC=C(C(=O)OC)[C@H]1CC(=O)OCCc1ccc(O)c(O)c1 (mixture of isomers) [Oleuropein aglycone, reference compound]",IC50,human amylin (hIAPP) [1],1000 nM
same,t 0 (time point when the aggregation starts),human amylin (hIAPP) [2],10.76 ± 0.25 h
same,t 1/2 (aggregation halftime),human amylin (hIAPP) [2],19.67 ± 0.31 h
same,t 1 (aggregation endpoint),human amylin (hIAPP) [2],28.83 ± 0.30 h
same,k,human amylin (hIAPP) [2],0.2366 ± 0.0075 h^–1
same,k e (elongation constant),human amylin (hIAPP) [2],15773 ± 650 M^–1h^–1
same,k n (nucleation constant),human amylin (hIAPP) [2],0.0022 ± 0.0005 h^–1
same,ρ (ratio of kn to k),human amylin (hIAPP) [2],0.0093 ± 0.0002
same,k e (elongation constant),human amylin (hIAPP) [2]; listed as oleuropein aglycone,15773 M^–1h^–1
same,ThT inhibition % (mean ± SEM),"human amylin (hIAPP) [3]; compound 10 μM, amylin 15 μM, 36 h incubation, 3 trials",82.3 ± 2.0%
CCCC(C)N1CCN(CC(O)CNCc2ccc(OC)cc2)CC1 (stereo not shown) [Compound 1],inhibition at 10 µM,human amylin (hIAPP) [4],19.7 ± 2%
same,inhibition at 10 µM,human amylin (hIAPP) [3],13.1 ± 1.8%
COc1ccc(CNCC(O)CN2CCN(c3ccccc3)CC2)cc1 (stereo not shown) [Compound 2],inhibition at 10 µM,human amylin (hIAPP) [4],6.9 ± 0.5%
same,inhibition at 10 µM,human amylin (hIAPP) [3],5 ± 0.7%
COc1ccc(CNCC(O)CN2CCN(Cc3ccccc3)CC2)cc1 (stereo not shown) [Compound 3],inhibition at 10 µM,human amylin (hIAPP) [4],17.9 ± 1.4%
same,inhibition at 10 µM,human amylin (hIAPP) [3],8.8 ± 4.9%
OC(CNCc1ccccc1)CN1CCN(C(c2ccccc2)c2ccccc2)CC1 (stereo not shown) [Compound 4],inhibition at 10 µM,human amylin (hIAPP) [4],20 ± 1.9%
same,inhibition at 10 µM,human amylin (hIAPP) [3],15.5 ± 0.7%
COc1ccc(CNCC(O)CN2CCN(C(c3ccccc3)c3ccccc3)CC2)cc1 (stereo not shown) [Compound 5],inhibition at 10 µM,human amylin (hIAPP) [4],19.5 ± 2.2%
same,inhibition at 10 µM,human amylin (hIAPP) [3],12.1 ± 1.1%
CC(C)(C)c1cccc(CNCC(O)CN2CCN(C(c3ccccc3)c3ccccc3)CC2)c1 (stereo not shown) [Compound 6],inhibition of Aβ aggregation in the ThT assay,Aβ,77.2%
same,inhibition at 10 µM,human amylin (hIAPP) [4],30.3 ± 3.1%
same,IC50,human amylin (hIAPP) [1],4110 nM
same,t 0 (time point when the aggregation starts),human amylin (hIAPP) [2],8.36 ± 0.56 h
same,t 1/2 (aggregation halftime),human amylin (hIAPP) [2],16.61 ± 0.27 h
same,t 1 (aggregation endpoint),human amylin (hIAPP) [2],25.27 ± 0.39 h
same,k,human amylin (hIAPP) [2],0.2488 ± 0.0157 h^–1
same,k e (elongation constant),human amylin (hIAPP) [2],16585 M^–1h^–1 and 16585 ± 1051 M^–1h^–1
same,k n (nucleation constant),human amylin (hIAPP) [2],0.0039 ± 0.0009 h^–1
same,ρ (ratio of kn to k),human amylin (hIAPP) [2],0.0159±0.0044
same,inhibition at 10 µM,human amylin (hIAPP) [3],> 50%
COc1ccc(CNCC(O)CN2CCN(C(c3ccc(F)cc3)c3ccc(F)cc3)CC2)cc1 (stereo not shown) [Compound 7],inhibition at 10 µM,human amylin (hIAPP) [4],18.6 ± 1.4%
same,inhibition at 10 µM,human amylin (hIAPP) [3],17 ± 0.7%
CCCC(C)N1CCN(CCC(O)CNCc2ccc(OC)cc2)CC1 (stereo not shown) [Compound 8],inhibition at 10 µM,human amylin (hIAPP) [4],20.1 ± 2%
same,inhibition at 10 µM,human amylin (hIAPP) [3],20.8 ± 1%
COc1ccc(CNCC(O)CCN2CCN(c3ccccc3)CC2)cc1 (stereo not shown) [Compound 9],inhibition at 10 µM,human amylin (hIAPP) [4],10 ± 0.5%
same,inhibition at 10 µM,human amylin (hIAPP) [3],4.3 ± 0.7%

# Source: article PMC12612973, “Inhibition of Human Amylin Aggregation: In Silico and In Vitro Studies” (ACS Omega, 2025)
